According to patent US10967078B2, “Radiolabelled mGluR2 PET ligands” (Janssen Pharmaceutica NV, priority 2014, dated 2021):

Molecular target: T1, mGluR2 (Rattus norvegicus, UniProt P31421)
T1 construct: horizontal sections of mGluR2 KO and WT mouse brain and of normal female Wistar rat brain; from tissue; host or cells: normal female Wistar rat brain sections, 20 µm
Test: In vitro autoradiography binding on normal female Wistar rat brain sections
Description: In vitro autoradiography studies were performed on horizontal sections of mGluR2 KO and WT mouse brain and of normal female Wistar rat brain (20 μm). The sections were preincubated in 50 mM Tris-HCl (MgCl2 2 mM, CaCl2 2 mM; pH 7.0) for 10 min (two times) at room temperature and dried. Next, the brain sections were incubated with tracer [^11C]-2, [^11C]-5, [^11C]-4, [^11C]-1 or [^18F]-3 diluted in the same Tris-HCl buffer as used for the preincubation additionally containing 0.1% BSA or with this tracer solution in the presence of 10 μM Co. No. 2 or Co. No. 1. The mouse brain sections were incubated with 17 kBq of carbon-11 labeled tracer and 1.7 kBq of fluorine-18 labeled tracer. For the rat brain sections this was 44 kBq of carbon-11 labeled tracer and 0.44 kBq of fluorine-18 labeled tracer. After 30 min of incubation, the brain sections were washed three times for 5 min in ice-cold Tris-HCl 50 mM ((MgCl2 2 mM, CaCl2 2 mM; pH 7.0+0.1% BSA buffer). After a quick dip in purified ice-cold water, the slides were dried. Autoradiograms were obtained by exposing the slides overnight to a high-performance phosphor storage screen (super-resolution screen; Perkin Elmer, Waltham, USA). The screens were read using a Cyclone Plus system (Perkin Elmer) and analysed using Optiquant software (Perkin Elmer). The radioactivity concentration in the autoradiograms was expressed in digital light units (DLU)/mm^2.
To obtain additional information on the specificity of the tracer binding to mGluR2, in vitro autoradiography binding studies were performed on mGluR2 KO and WT mouse brain sections and on normal rat brain sections in presence or absence of a high concentration of mGluR2 NAM compounds (Co. No. 1 or Co. No. 2).

[1] = self-blocking or blocking with Co. No. 1 (10 μM)

T1 sequence (P31421 19-872): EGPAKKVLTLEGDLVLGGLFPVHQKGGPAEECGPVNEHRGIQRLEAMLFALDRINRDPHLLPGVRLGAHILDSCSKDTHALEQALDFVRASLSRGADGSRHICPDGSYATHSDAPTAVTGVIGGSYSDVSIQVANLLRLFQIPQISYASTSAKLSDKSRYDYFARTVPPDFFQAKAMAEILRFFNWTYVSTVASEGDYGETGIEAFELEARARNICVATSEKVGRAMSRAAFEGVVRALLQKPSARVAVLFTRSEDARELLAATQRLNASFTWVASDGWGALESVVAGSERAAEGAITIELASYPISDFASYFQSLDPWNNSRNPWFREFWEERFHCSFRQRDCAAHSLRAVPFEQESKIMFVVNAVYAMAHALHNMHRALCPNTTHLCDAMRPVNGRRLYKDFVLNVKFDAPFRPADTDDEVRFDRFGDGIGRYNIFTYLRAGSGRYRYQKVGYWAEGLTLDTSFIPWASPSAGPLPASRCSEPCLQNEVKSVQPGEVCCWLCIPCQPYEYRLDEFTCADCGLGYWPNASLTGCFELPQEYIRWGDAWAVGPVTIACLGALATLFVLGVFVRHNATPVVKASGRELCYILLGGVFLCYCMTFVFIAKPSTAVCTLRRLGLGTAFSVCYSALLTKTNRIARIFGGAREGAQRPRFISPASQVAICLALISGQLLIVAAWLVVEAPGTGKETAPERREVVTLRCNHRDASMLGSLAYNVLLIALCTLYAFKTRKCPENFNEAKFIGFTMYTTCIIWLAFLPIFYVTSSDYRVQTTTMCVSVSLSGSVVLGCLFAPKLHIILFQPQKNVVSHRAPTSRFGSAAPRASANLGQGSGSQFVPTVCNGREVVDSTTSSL

C[C@H]1CN(c2ccc(C(F)(F)F)cc2)C(=O)c2c(-c3ccnc(N[11CH3])c3)cnn21 [[^11C]-2]
total binding to normal rat brain sections (in words): high binding
decrease in binding in rat cortex [1]: ~91%
decrease in binding in rat striatum [1]: ~78%
